{"source": "patent US11191746B2", "about": "“Composition for inhibiting a growth of cancer stem cells comprising ciclesonide” (JEJU NATIONAL UNIVERSITY INDUSTRY-ACADEMIC COOPERATION …, priority 2016, dated 2021)", "type_in_all_cases": "cell-based, human", "key": {"[1]": {"system": "MCF-7 cell-derived mammospheres", "assay": "Mammosphere formation", "details": "MCF-7 mammospheres, 80 μM", "procedure": "(§1) Human breast cancer cells, MCF-7, were obtained from American Type Culture Collection (ATCC; Manassas, Va., USA). MCF-7 cells and MDA-MB-231 cells were cultured in Dulbecco's Modified Essential Medium (DMEM; Hyclone, Logan, Utah, USA) containing 10% fetal bovine serum (FBS; Hyclone), 100 U/ml of penicillin, and 100 μg/ml of streptomycin (Hyclone). The MCF-7 cells were maintained in a humidified incubator containing 5% CO2 at 37° C. The cells were plated in 10 cm culture dishes at a density of 1×10^6 cells. To establish primary mammospheres, single cell-suspended MCF-7 cells were inoculated into ultra-low attachment 6-well plates containing 2 ml of complete MammoCult™ medium (StemCell Technologies, Vancouver, BC, Canada) at a density of 3.5 to 4×10^4 cells/well. The complete MammoCult™ medium was supplemented with 4 μg/ml of heparin, 0.48 μg/ml of hydrocortisone, 100 U/ml of penicillin, and 100 μg/ml of streptomycin. The cells were incubated in a 5% CO2 incubator at 37° C. for 7 days.\n(§2) On day 10 of culture, cell culture plates were placed on a scanner (Epson Perfection V700 PHOTO, Epson Korea, Co, Seoul, Korea) to obtain 8-bit gray scale images of mammospheres. The images were acquired using a NICE software program downloaded from ftp://ftp.nist.gov/pub/physics/mlclarke/NICE at a low resolution of 300 dpi. For counting, a desired number of rows and columns (e.g., 2×3 for a 6-well plate) were selected to generate ROIs and after selecting the elliptical setting of the NICE program, the individual ROIs were defined by adjusting the movement and size of the provided ROI shapes. The background signals of the images were negated using a threshold algorithm, and the selected images were automatically counted. To analyze the formation of mammospheres, mammosphere formation efficiency (MFE, %) was determined by the following equation: MFE (%)=the number of mammospheres per well/a total number of plated cells per well×100."}, "[2]": {"system": "MDA-MB-231 cell-derived mammospheres", "assay": "Mammosphere formation", "details": "MDA-MB-231 mammospheres, 80 μM", "procedure": "as §1, §2"}, "[3]": {"system": "A549 cell-derived tumorspheres", "assay": "Tumorsphere formation", "details": "A549 tumorspheres", "procedure": "Human lung cancer cells, A549, were cultured under the same culture conditions as those for the breast cancer cells of Example 2-1. To establish primary tumorspheres, single cell-suspended A549 cells were inoculated into ultra-low attachment 6-well plates containing 2 ml of Cancer Stem Premium medium (ProMab Biotechnologies Inc, Richmond, Calif., USA) at a density of 5×10^4 cells/well. The cells were incubated in a 5% CO2 incubator at 37° C. for 10 days.\nLung cancer tumorspheres were counted in the same manner as in Example 3-1, and for the analysis of tumorsphere formation, tumorsphere formation efficiency (TFE, %) was determined by the following equation: TFE (%)=number of tumorspheres per well/total number of plated cells per well×100."}}}
{"compound": "C[C@]12C=CC(=O)C=C1CC[C@@H]1[C@@H]2C(=O)C[C@@]2(C)[C@H]1CC[C@]2(O)C(=O)CO", "note": "[prednisone]", "values": [{"measurement": "growth of breast cancer stem cells", "setting": "[1]", "value": "unable to inhibit"}, {"measurement": "growth of breast cancer stem cells", "setting": "[2]", "value": "unable to inhibit"}, {"measurement": "lung cancer stem cell inhibitory activity", "setting": "[3]; 80 μM", "value": "did not exhibit a lung cancer stem cell inhibitory activity"}]}
{"compound": "isobutyryl ciclesonide", "values": [{"measurement": "lung cancer stem cell inhibitory activity", "setting": "[3]; 5 μM and 10 μM", "value": "exhibited a lung cancer stem cell inhibitory activity"}]}
